Reference: patent publication US20240041042A1, “1-(PYRIDYL)-5-AZINYLPYRAZOLE DERIVATIVES, AND THEIR USE FOR CONTROL OF UNDESIRED PLANT GROWTH” (Bayer Aktiengesellschaft, priority 2020, published 2024)
Read-outs that look alike come from different tables or passages of the source.

Key:
Assay type in all cases: in vivo
[1] = test system: Pharbitis purpurea (PHBPU); assay: Post-emergence herbicidal action against PHBPU; details: dosage 320 g/ha
Procedure, shortened: (§1)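 Post-emergence greenhouse spray, one-leaf stage, 600 l/ha water plus 0.5% additive; WP or EC formulations; application rates 320 g/ha or lower. Visual % damage vs untreated controls at ~3 weeks.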

[2] = test system: Amaranthus retroflexus (AMARE); assay: Pre-emergence herbicidal action against AMARE; details: 320 g/ha, visual scoring after about 3 weeks vs untreated controls
Procedure, shortened: (§2)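 Pre-emergence soil-surface spray of compound, formulated as wettable powder or emulsion concentrate, in aqueous suspension or emulsion with 0.5% additive (600 l/ha; rate 320 g/ha or less). Activity rated visually after roughly 3 weeks in the greenhouse as a percentage of untreated controls, 0% meaning no difference.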

[3] = test system: Polygonum convolvulus (POLCO); assay: Pre-emergence herbicidal action against POLCO; details: dosage 320 g/ha
Procedure, shortened: as §2

[4] = test system: Polygonum convolvulus (POLCO); assay: Post-emergence herbicidal action against POLCO; details: dosage 320 g/ha
Procedure, shortened: as §1

[5] = test system: Amaranthus retroflexus (AMARE); assay: Post-emergence herbicidal action against AMARE
Procedure, shortened: as §1

Avena fatua (AVEFA) = assay: Pre-emergence herbicidal action against AVEFA; details: 320 g/ha, visual scoring after about 3 weeks vs untreated controls
Procedure, shortened: as §2

Glycine max (GLXMA) [6] = assay: Post-emergence crop plant compatibility, GLXMA; details: for Post-emergence action against GLXMA in %: effect in comparison to untreated controls
Protocol: Seeds of monocotyledonous and dicotyledonous weeds and crop plants are placed in sandy loam in plastic or organic planting pots, covered with soil and cultivated in a greenhouse under controlled growth conditions. 2 to 3 weeks after sowing, the test plants are treated at the one-leaf stage. The compounds of the invention, formulated in the form of wettable powders (WP) or as emulsion concentrates (EC), are then sprayed onto the green parts of the plants as aqueous suspension or emulsion with addition of 0.5% additive at a water application rate of 600 l/ha (converted). After the test plants have been kept in the greenhouse under optimum growth conditions for about 3 weeks, the activity of the preparations is rated visually in comparison to untreated controls. For example, 100% activity=the plants have died, 0% activity=like control plants.
The observed effects on selected crop plants are reported here in comparison to the untreated controls (values in %). The appendices “a”, “b” and “c” give differentiation by dosage used with otherwise the same crop plants tested.

Viola tricolor (VIOTR) [7] = assay: Post-emergence herbicidal action against VIOTR; details: 320 g/ha
Procedure, shortened: as §1

Viola tricolor (VIOTR) [8] = assay: Pre-emergence herbicidal action against VIOTR
Procedure, shortened: as §2

Zea mays (ZEAMX) [9] = details: for Post-emergence action against ZEAMX in %: crop plant compatibility, effect vs untreated controls
Procedure, shortened: (§3)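 One-leaf-stage crops (2–3 wk post-sowing, sandy loam, greenhouse) sprayed on green parts; 0.5% additive, 600 l/ha water. Rated by eye ~3 wk later, % vs untreated; suffixes a/b/c mark different dosages.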

Oryza sativa (ORYSA) [10] = details: crop plant compatibility
Procedure, shortened: as §3

[11] = test system: Triticum aestivum (TRZAS); details: crop plant compatibility, effect vs untreated controls
Procedure, shortened: as §3

Glycine max (GLXMA) [12] = details: pre-emergence, crop plant compatibility, in comparison to untreated controls
Procedure, shortened: (§4)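 Scoring: visual, % of untreated control, about 3 weeks after a pre-emergence application to the soil surface. Application used WP or EC formulations diluted in water with 0.5% additive at 600 l/ha; dosage levels are marked by suffixes a, b and c.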

Zea mays (ZEAMX) [13] = details: pre-emergence, 80 g/ha, crop plant compatibility, in comparison to untreated controls
Procedure, shortened: as §4

Brassica napus (BRSNW) = details: 80 g/ha, crop plant compatibility, in comparison to untreated controls
Procedure, shortened: as §4

[14] = test system: Triticum aestivum (TRZAS); details: pre-emergence, crop plant compatibility, in comparison to untreated controls
Procedure, shortened: as §4

[15] = test system: Matricaria inodora (MATIN); assay: Pre-emergence herbicidal action against MATIN; details: dosage 320 g/ha
Procedure, shortened: as §2

[16] = test system: Abutilon theophrasti (ABUTH); assay: Pre-emergence herbicidal action against ABUTH; details: Dosage column 320 g/ha (title prints 3200 g/ha); scored visually after about 3 weeks; 100% = plants have died
Procedure, shortened: as §2

[17] = test system: Echinochloa crus-galli (ECHCG); assay: Pre-emergence herbicidal action against ECHCG; details: dosage 320 g/ha
Procedure, shortened: as §2

Oryza sativa (ORYSA) [18] = details: pre-emergence, crop plant compatibility, in comparison to untreated controls
Procedure, shortened: as §4

[19] = test system: Digitaria sanguinalis (DIGSA); assay: Pre-emergence herbicidal action against DIGSA
Procedure, shortened: as §2

[20] = test system: Abutilon theophrasti (ABUTH); assay: Post-emergence herbicidal action against ABUTH; details: 80 g/ha, visual rating about 3 weeks after treatment vs untreated controls (100% = plants have died, 0% = like control plants)
Procedure, shortened: as §1

[21] = test system: Matricaria inodora (MATIN); assay: Post-emergence herbicidal action against MATIN; details: dosage 80 g/ha
Procedure, shortened: as §1

Lolium rigidum (LOLRI) [22] = assay: Pre-emergence herbicidal action against LOLRI; details: dosage 320 g/ha
Procedure, shortened: as §2

[23] = test system: Echinochloa crus-galli (ECHCG); assay: Post-emergence herbicidal action against ECHCG; details: dosage 80 g/ha
Procedure, shortened: as §1

Setaria viridis (SETVI) [24] = assay: Pre-emergence herbicidal action against SETVI; details: dosage 320 g/ha
Procedure, shortened: as §2

Setaria viridis (SETVI) [25] = assay: Post-emergence herbicidal action against SETVI; details: dosage 80 g/ha
Procedure, shortened: as §1

[26] = test system: Alopecurus myosuroides (ALOMY); assay: Pre-emergence herbicidal action against ALOMY; details: 320 g/ha; scored visually after about 3 weeks; 100% = plants have died
Procedure, shortened: as §2

[27] = test system: Verconica persica (VERPE); assay: Pre-emergence herbicidal action against VERPE; details: dosage 320 g/ha
Procedure, shortened: as §2

Lolium rigidum (LOLRI) [28] = assay: Post-emergence herbicidal action against LOLRI; details: dosage 80 g/ha
Procedure, shortened: as §1

[29] = 80 g/ha, effect in comparison to untreated controls
[30] = 320 g/ha, effect in comparison to untreated controls

CCOC(=O)COc1nn(-c2ccccn2)c(-c2cncc(F)c2)c1Cl [Example I-147]
Post-emergence action against PHBPU in % [1]: 90% | Pre-emergence action against AMARE in % [2]: 90% | Pre-emergence action against POLCO in % [3]: 90% | Post-emergence action against POLCO in % [4]: 90% | Post-emergence action against AMARE in % ([5]; 320 g/ha, visual rating about 3 weeks after treatment): 90% | Pre-emergence action against AVEFA in % (Avena fatua (AVEFA)): 80% | Post-emergence action against GLXMA (Glycine max (GLXMA) [6]; 320 g/ha, effect vs untreated controls): 10% | Post-emergence action against GLXMA in % (Glycine max (GLXMA) [6]; 80 g/ha): 0% | Post-emergence action against VIOTR in % (Viola tricolor (VIOTR) [7]): 90% | Pre-emergence action against VIOTR in % (Viola tricolor (VIOTR) [8]; 320 g/ha, Viola tricolor): 90% | Post-emergence action against ZEAMX in % (Zea mays (ZEAMX) [9]; 80 g/ha): 0% | Post-emergence action against ZEAMX in % (Zea mays (ZEAMX) [9]; 320 g/ha): 20% | Post-emergence action against ORYSA in % (Oryza sativa (ORYSA) [10]; [29]): 0% | Post-emergence action against ORYSA in % (Oryza sativa (ORYSA) [10]; [30]): 0% | Post-emergence action against TRZAS in % ([11]; 80 g/ha): 0% | Post-emergence action against TRZAS in % ([11]; 320 g/ha): 20% | Pre-emergence action against GLXMA in % (Glycine max (GLXMA) [12]; 80 g/ha): 0% | Pre-emergence action against GLXMA in % (Glycine max (GLXMA) [12]; 320 g/ha): 0% | Pre-emergence action against ZEAMX in % (Zea mays (ZEAMX) [13]): 0% | Pre-emergence action against BRSNW in % (Brassica napus (BRSNW)): 0% | Pre-emergence action against TRZAS in % ([14]; 80 g/ha): 0% | Pre-emergence action against TRZAS in % ([14]; 320 g/ha): 20%

O=C(CSc1nn(-c2ccccn2)c(-c2cncc(F)c2)c1Br)NC1CC1 [Example I-201]
Pre-emergence action against MATIN in % [15]: 80% | Pre-emergence action against ABUTH [16]: 80% | Post-emergence action against GLXMA in % (Glycine max (GLXMA) [6]; 80 g/ha): 20% | Pre-emergence action against ECHCG in % [17]: 90% | Post-emergence action against ZEAMX in % (Zea mays (ZEAMX) [9]; 80 g/ha): 0% | Post-emergence action against ZEAMX in % (Zea mays (ZEAMX) [9]; 320 g/ha): 20% | Post-emergence action against ORYSA in % (Oryza sativa (ORYSA) [10]; [29]): 0% | Post-emergence action against ORYSA in % (Oryza sativa (ORYSA) [10]; [30]): 0% | Post-emergence action against TRZAS in % ([11]; 80 g/ha): 0% | Post-emergence action against TRZAS in % ([11]; 320 g/ha): 10% | Pre-emergence action against GLXMA in % (Glycine max (GLXMA) [12]; 80 g/ha): 0% | Pre-emergence action against ZEAMX in % (Zea mays (ZEAMX) [13]): 20% | Pre-emergence action against ORYSA in % (Oryza sativa (ORYSA) [18]; 80 g/ha): 0% | Pre-emergence action against ORYSA in % (Oryza sativa (ORYSA) [18]; 320 g/ha): 20% | Pre-emergence action against TRZAS in % ([14]; 80 g/ha): 0%

O=C(O)CSc1nn(-c2ccccn2)c(-c2cncc(Cl)c2)c1Br [Example I-126]
Pre-emergence action against DIGSA in % ([19]; 80 g/ha, visual scoring after about 3 weeks vs untreated controls): 90% | Pre-emergence action against DIGSA in % ([19]; dosage 320 g/ha): 100% | Pre-emergence action against MATIN in % [15]: 90% | Post-emergence action against ABUTH in % [20]: 80% | Post-emergence action against MATIN in % [21]: 80% | Pre-emergence action against LOLRI in % (Lolium rigidum (LOLRI) [22]): 100% | Pre-emergence action against AMARE in % [2]: 100% | Post-emergence action against ECHCG in % [23]: 80% | Pre-emergence action against POLCO in % [3]: 90% | Pre-emergence action against SETVI in % (Setaria viridis (SETVI) [24]): 90% | Post-emergence action against SETVI in % (Setaria viridis (SETVI) [25]): 80% | Pre-emergence action against ALOMY [26]: 80% | Post-emergence action against AMARE in % ([5]; 80 g/ha, visual rating about 3 weeks after treatment vs untreated controls (100% = plants have died, 0% = like control plants)): 80% | Pre-emergence action against VERPE in % [27]: 80% | Post-emergence action against GLXMA in % (Glycine max (GLXMA) [6]; 20 g/ha): 20% | Pre-emergence action against ECHCG in % [17]: 90% | Pre-emergence action against VIOTR in % (Viola tricolor (VIOTR) [8]; 320 g/ha, Viola tricolor): 100% | Pre-emergence action against VIOTR in % (Viola tricolor (VIOTR) [8]; dosage 80 g/ha): 100% | Post-emergence action against ZEAMX in % (crop plant compatibility) (Zea mays (ZEAMX) [9]; 20 g/ha, ZEAMX, effect in comparison to untreated controls): 10% | Post-emergence action against ORYSA in % (Oryza sativa (ORYSA) [10]; 20 g/ha, effect vs untreated controls): 0% | Post-emergence action against ORYSA in % (Oryza sativa (ORYSA) [10]; [29]): 0% | Post-emergence action against TRZAS in % ([11]; 20 g/ha): 20% | Post-emergence action against LOLRI in % (Lolium rigidum (LOLRI) [28]): 80% | Pre-emergence action against ORYSA in % (Oryza sativa (ORYSA) [18]; 80 g/ha): 20% | Pre-emergence action against TRZAS in % ([14]; 80 g/ha): 20%
